Measured values published in US5965701A, “Kappa receptor opioid peptides” (priority 1997, dated 1999).
“And” between values parts separate entries of the source, which are not always exact repeats. Identical values can stand only once. Where a SMILES comes first, the peptide text is derived from it. [ ]: non-standard residue; d: D form. The star is where a group is joined. dPhe(3,4-Cl2) = N[C@H](Cc1ccc(Cl)c(Cl)c1)C(=O)O; dPhe(4-CH2NH2) = NCc1ccc(C[C@@H](N)C(=O)O)cc1; dPhe(4-Cl) = N[C@H](Cc1ccc(Cl)cc1)C(=O)O; dPhe(4-F) = N[C@H](Cc1ccc(F)cc1)C(=O)O; d2Nal = N[C@H](Cc1ccc2ccccc2c1)C(=O)O; NH(thiazol-2-yl) = c1csc(N*)n1; d2Thi = N[C@H](Cc1cccs1)C(=O)O; NH(3-picolyl) = c1cncc(CN*)c1; NH(4-picolyl) = c1cc(CN*)ccn1; dNle = CCCC[C@@H](N)C(=O)O; Morpholide = C1CN(*)CCO1; Piperidide = C1CCN(*)CC1; NHBn = c1ccc(CN*)cc1; NHCH2CH2OH = OCCN*; X2 = OC1CCN(*)CC1; X1 = C1CN(*)CCS1; NHBu = CCCCN*

Assays:
[1] = target: T1, cloned human kappa (hKOR) receptor (Homo sapiens, UniProt P41145); test: biochemical; format: binding; conditions: for μ/κ Ratio (binding affinity for KOR versus MOR): Ki MOR / Ki KOR; for Ki: read-out: Ki KOR
T1 construct: expressed in transfected cells; host or cells: HN9.10 (mouse hippocampal neuroblastoma), stably transfected

[2] = target: T2, cloned human mu opioid (hMOR) receptor (Homo sapiens, UniProt P35372); test: Competition binding at cloned hMOR, displacement of 3H-DAMGO; conditions: hMOR stably expressed in HN.9.10 cells, read-out: Ki MOR
T2 construct: expressed in transfected cells; host or cells: HN9.10 (mouse hippocampal neuroblastoma), stably transfected

conscious male ICR mice = test: Mouse acetic acid writhing test (WT); format: in vivo; conditions: for WT-ED50: i.v., 5 minutes before acetic acid i.p., writhes over 15 minutes; for % Antinociception 1 hr / % Antinociception 2 hr: submaximal effective dose i.v., percentage of the activity found at -5 min; for % Antinociception 1 hr: 60 min pretreatment; for % Antinociception 2 hr: 120 min pretreatment
Procedure: Selected peptides that are identified in Tables A-G have been further specifically subjected to in vivo testing for determination of duration of action of their opioid properties, and the results are reported in Table H hereinafter. The peptide numbers correspond to those in the earlier tables and the figures with regard to μ/K ratio are simply carried over for reference purposes. The in vivo testing is carried out using a mouse writhing test (WT) that is well-suited for determining the length of duration of antinociceptive biological activity. This test is described in detail in an article by G. A. Bentley et al., Br. J. Phamac., 73:325-332, 1981, and it employs conscious male ICR mice which are purchased from Harlan and which weigh between 20 and 30 grams. The mice are fasted for 12 to 16 hours prior to beginning the test. The nociceptive behavior, i.e. writhing, to be monitored is induced by the intraperitoneal (i.p.) administration of dilute acetic acid. 10 milliliters of 0.6% aqueous acetic acid is used per kg of body weight. Writhing is scored during the 15 minutes following acetic acid administration. In a first step, compounds are tested at 3 to 4 increasing doses, given by intravenous route, and at one unique pretreatment time (-5 minutes before acetic acid injection). […] In a second step, this submaximal effective dose for each specific peptide is administered at various pretreatment times (i.e. -5 minutes, -60 minutes, -120 minutes and -180 minutes) prior to the administration of the acetic acid in order to determine the duration of action. Throughout the test, a control group of mice are used which are administered only the vehicle without the candidate peptide. The number of writhes are counted over a 15-minute period, starting from the time of acetic acid injection, and bioactivity, i.e. antinociception, is expressed as a percentage, and is calculated as follows:
100×(writhes in control group-writhes in treated group)/writhes in
Values higher than 100% indicate greater antinociception than at the beginning of the experiment. It is felt that the opioid peptide should be effective to reduce writhing by at least about 25% at a time of 1 hour to be considered to have long duration of in vivo action.
In addition to using this test to determine duration of antinociceptive activity, it is also used to measure the in vivo biopotency (short term) of the peptide. This value is given in the table under the heading WT-ED50 in milligrams per kg of body weight. The value is a measure of the dosage necessary to reduce the number of writhes in the mouse being tested by 50% (as compared to a control mouse) over a period of 15 minutes.

T1 sequence (P41145 whole entry): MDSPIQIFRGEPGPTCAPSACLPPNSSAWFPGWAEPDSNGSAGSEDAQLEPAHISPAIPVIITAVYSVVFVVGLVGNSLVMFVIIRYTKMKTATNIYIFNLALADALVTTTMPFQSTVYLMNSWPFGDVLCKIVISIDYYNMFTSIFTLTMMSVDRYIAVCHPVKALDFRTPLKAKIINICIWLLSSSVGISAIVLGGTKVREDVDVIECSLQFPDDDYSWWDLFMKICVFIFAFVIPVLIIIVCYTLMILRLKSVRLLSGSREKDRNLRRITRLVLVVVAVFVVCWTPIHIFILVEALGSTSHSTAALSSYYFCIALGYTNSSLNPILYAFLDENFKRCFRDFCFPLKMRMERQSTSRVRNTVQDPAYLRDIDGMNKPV
T2 sequence (P35372 whole entry): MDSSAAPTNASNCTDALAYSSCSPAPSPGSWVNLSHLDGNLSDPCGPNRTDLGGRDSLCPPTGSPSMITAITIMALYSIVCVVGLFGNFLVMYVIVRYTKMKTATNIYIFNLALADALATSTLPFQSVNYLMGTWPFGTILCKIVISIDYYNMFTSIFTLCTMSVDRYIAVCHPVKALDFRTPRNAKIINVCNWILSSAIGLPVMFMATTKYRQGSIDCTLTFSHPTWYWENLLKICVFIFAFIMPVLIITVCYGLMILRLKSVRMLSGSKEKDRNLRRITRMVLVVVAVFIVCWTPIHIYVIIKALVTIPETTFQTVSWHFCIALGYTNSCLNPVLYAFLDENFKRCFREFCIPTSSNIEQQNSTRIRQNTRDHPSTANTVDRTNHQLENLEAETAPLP

| Molecule | μ/κ Ratio (binding affinity for KOR versus MOR) [1] | Ki [1] [nM] | Ki [2] [nM] | WT-ED50 (conscious male ICR mice) | % Antinociception 1 hr (conscious male ICR mice) [%] | % Antinociception 2 hr (conscious male ICR mice) [%] |
| --- | --- | --- | --- | --- | --- | --- |
| CCCC[C@@H](NC(=O)[C@@H](Cc1ccccc1)NC(=O)[C@H](N)Cc1ccccc1)C(=O)N[C@H](CCCNC(=N)N)C(=O)NC [Peptide 2, H-D-Phe-D-Phe-D-Nle-D-Arg-NHMe] (H-[dF][dF][dNle][dR]-NHMe) | 60,000 | 0.06 | 3620 | 0.14 mg/kg | 70.5 | 29.8 |
| CCCCNC(=O)[C@@H](CCCNC(=N)N)NC(=O)[C@@H](CCCC)NC(=O)[C@@H](Cc1ccccc1)NC(=O)[C@H](N)Cc1ccccc1 [Peptide 4, H-D-Phe-D-Phe-D-Nle-D-Arg-NHBu] (H-[dF][dF][dNle][dR]-NHBu) | 7,200 | 0.19 | 1370 | 0.3 mg/kg and 0.30 mg/kg | 49.3 | – |
| CCCC[C@@H](NC(=O)[C@@H](Cc1ccccc1)NC(=O)[C@H](N)Cc1ccccc1)C(=O)N[C@H](CCCNC(=N)N)C(=O)NCCO [Peptide 9, H-D-Phe-D-Phe-D-Nle-D-Arg-NHhEt] (H-[dF][dF][dNle][dR]-NHCH2CH2OH) | 2,500 | 0.4 | 1010 | 0.03 mg/kg | 72.5 | 39.5 |
| CCCC[C@@H](NC(=O)[C@@H](Cc1ccccc1)NC(=O)[C@H](N)Cc1ccccc1)C(=O)N[C@H](CCCNC(=N)N)C(=O)N1CCSCC1 [Peptide 10, H-D-Phe-D-Phe-D-Nle-D-Arg-Tmo] (H-[dF][dF][dNle][dR]-X1) | 25,000 | 0.09 | 2260 | 0.067 mg/kg and 0.07 mg/kg | 81.6 | 47.5 |
| CCCC[C@@H](NC(=O)[C@@H](Cc1ccccc1)NC(=O)[C@H](N)Cc1ccccc1)C(=O)N[C@H](CCCNC(=N)N)C(=O)N1CCC(O)CC1 [Peptide 11, H-D-Phe-D-Phe-D-Nle-D-Arg-4-HyP] (H-[dF][dF][dNle][dR]-X2) | 62,000 | 0.06 | 3700 | 0.073 mg/kg and 0.07 mg/kg | 61.8 | 36.9 |
| CCCC[C@@H](NC(=O)[C@@H](Cc1ccccc1)NC(=O)[C@H](N)Cc1ccccc1)C(=O)N[C@H](CCCNC(=N)N)C(=O)N1CCCCC1 [Peptide 12, H-D-Phe-D-Phe-D-Nle-D-Arg-Pip] (H-[dF][dF][dNle][dR]-Piperidide) | 7,000 | 0.15 | 1050 | 0.07 mg/kg | 60.5 | 53.6 |
| CCCC[C@@H](NC(=O)[C@@H](Cc1ccccc1)NC(=O)[C@H](N)Cc1ccccc1)C(=O)N[C@H](CCCNC(=N)N)C(=O)Nc1nccs1 [Peptide 13, H-D-Phe-D-Phe-D-Nle-D-Arg-NH(2-Tzl)] (H-[dF][dF][dNle][dR]-{NH(thiazol-2-yl)}) | 2,700 | 0.59 | 1590 | 0.44 mg/kg | 30.7 | – |
| CCCC[C@@H](NC(=O)[C@@H](Cc1ccccc1)NC(=O)[C@H](N)Cc1ccccc1)C(=O)N[C@H](CCCNC(=N)N)C(=O)NCc1ccccc1 [Peptide 14, H-D-Phe-D-Phe-D-Nle-D-Arg-NHBzl] (H-[dF][dF][dNle][dR]-NHBn) | 2,000 | 0.44 | 890 | 0.14 mg/kg | 36 | – |
| CCCC[C@@H](NC(=O)[C@@H](Cc1ccccc1)NC(=O)[C@H](N)Cc1ccccc1)C(=O)N[C@H](CCCNC(=N)N)C(=O)NCc1cccnc1 [Peptide 54, H-D-Phe-D-Phe-D-Nle-D-Arg-NH(3Pic)] (H-[dF][dF][dNle][dR]-{NH(3-picolyl)}) | 3,100 | 0.39 | 1220 | – | – | – |
| CCCC[C@@H](NC(=O)[C@@H](Cc1ccccc1)NC(=O)[C@H](N)Cc1ccccc1)C(=O)N[C@H](Cc1ccc(CN)cc1)C(=O)NCC [Peptide 55, H-D-Phe-D-Phe-D-Nle-D-Amf-NHEt] (H-[dF][dF][dNle][dPhe(4-CH2NH2)]-NHEt) | 12,500 | 0.14 | 1750 | – | – | – |
| CC(C)C[C@@H](NC(=O)[C@@H](Cc1ccc(Cl)cc1)NC(=O)[C@H](N)Cc1cccs1)C(=O)N[C@H](CCCNC(=N)N)C(=O)N1CCOCC1 [Peptide 59, H-D-Ala(2Thi)-D-4Cpa-D-Leu-D-Arg-Mor] (H-[d2Thi][dPhe(4-Cl)][dL][dR]-Morpholide) | – | 0.25 | 3360 | – | – | – |
| CC(C)C[C@@H](NC(=O)[C@@H](Cc1ccc(Cl)c(Cl)c1)NC(=O)[C@H](N)Cc1cccs1)C(=O)N[C@H](CCCNC(=N)N)C(=O)N1CCOCC1 [Peptide 61, H-D-Ala(2Thi)-D-3,4Cpa-D-Leu-D-Arg-Mor] (H-[d2Thi][dPhe(3,4-Cl2)][dL][dR]-Morpholide) | 10,400 | 0.15 | 1560 | – | – | – |
| CC(C)C[C@@H](NC(=O)[C@@H](Cc1ccc2ccccc2c1)NC(=O)[C@H](N)Cc1ccc(F)cc1)C(=O)N[C@H](CCCNC(=N)N)C(=O)N1CCOCC1 [Peptide 62, H-D-4Fpa-D-2Nal-D-Leu-D-Arg-Mor] (H-[dPhe(4-F)][d2Nal][dL][dR]-Morpholide) | 3,500 | 0.33 | 1140 | – | – | – |
| CC(C)C[C@@H](NC(=O)[C@@H](Cc1ccc(Cl)cc1)NC(=O)[C@H](N)Cc1cccs1)C(=O)N[C@H](CCCNC(=N)N)C(=O)NCc1ccncc1 [Peptide 64, H-D-Ala(2Thi)-D-4Cpa-D-Leu-D-Arg-NH(4Pic)] (H-[d2Thi][dPhe(4-Cl)][dL][dR]-{NH(4-picolyl)}) | – | 0.31 | 2380 | – | – | – |
| CC(C)C[C@@H](NC(=O)[C@@H](Cc1ccc(Cl)cc1)NC(=O)[C@H](N)Cc1ccc(F)cc1)C(=O)N[C@H](CCCNC(=N)N)C(=O)N1CCOCC1 [Peptide 65, H-D-4Fpa-D-4Cpa-D-Leu-D-Arg-Mor] (H-[dPhe(4-F)][dPhe(4-Cl)][dL][dR]-Morpholide) | – | 0.17 | 1900 | – | – | – |
| H-D-CMP-D-Phe-D-Nle-D-Arg-NH(4Pic) [Peptide 43] | 2,500 | – | – | – | – | – |
| H-D-Phe-D-Phe-D-Acp-D-Arg-NH(4Pic) [Peptide 44] | 8,200 | – | – | – | – | – |
| H-D-Phe-D-Phe-D-CML-D-Oro-Mor [Peptide 46] | 14,000 | – | – | – | – | – |
| H-D-Phe-D-Phe-D-Hle-D-Arg-NH(4Pic) [Peptide 45] | 11,000 | – | – | – | – | – |
| H-D-Phe-D-Phe-D-Lcu-D-Dbu-Mor [Peptide 53] | 85,000 | – | – | – | – | – |
| H-D-Phe-D-Phe-D-Lcu-D-Dbu-NH(4Pic) [Peptide 52] | 92,000 | – | – | – | – | – |
| H-D-Phe-D-Phe-D-Lcu-D-Lys-Mor [Peptide 49] | 92,000 | – | – | – | – | – |
| H-D-Phe-D-Phe-D-Lcu-D-Lys-NH(4Pic) [Peptide 47] | 30,000 | – | – | – | – | – |
| H-D-Phe-D-Phe-D-Lcu-D-Lys-NHPr [Peptide 48] | 18,000 | – | – | – | – | – |
| H-D-Phe-D-Phe-D-Nle-D-Arg-Ecp [Peptide 42] | 27,000 | – | – | 0.06 mg/kg | 45.3 | 29.4 |
| H-D-Phe-D-Phe-D-Nle-D-Arg-NH-4-Ahz [Peptide 41] | 12,000 | – | – | – | – | – |
| H-D-Phe-D-Phe-D-Nle-D-Arg-NH-4Nhz [Peptide 40] | 3,800 | – | – | – | – | – |
| H-D-Phe-D-Phe-D-Nle-D-Har-Mor [Peptide 51] | 12,000 | – | – | – | – | – |
| H-D-Phe-D-Phe-D-Nle-D-Har-NH(4Pic) [Peptide 50] | 9,300 | – | – | – | – | – |
